Source: ChEMBL document CHEMBL5143638, “Natural aloe emodin-hybridized sulfonamide aminophosphates as novel potential membrane-perturbing and DNA-intercalating agents against Enterococcus faecalis” (Bioorg Med Chem Lett, 2022)
Values after ≈ are worked out from the molar mass of the structure shown. Active and inactive are the calls of the source. No cut-off for these calls is given here.

Columns and labels:
Enterococcus faecalis [1] = test: Antibacterial activity against Enterococcus faecalis assessed as inhibition of bacterial growth measured after 24 hrs by CLSI based broth microdilution method; assay type: functional
Acinetobacter baumannii = test: Antibacterial activity against Acinetobacter baumannii assessed as inhibition of bacterial growth measured after 24 hrs by CLSI based broth microdilution method; assay type: functional
Staphylococcus aureus [2] = test: Potency index, ratio of norfloxacin MIC to test compound MIC for antibacterial activity against Staphylococcus aureus assessed as inhibition of bacterial growth measured after 24 hrs by CLSI based broth microdilution method; assay type: functional
Staphylococcus aureus [3] = test: Potency index, ratio of sulfisoxazole MIC to test compound MIC for antibacterial activity against Staphylococcus aureus assessed as inhibition of bacterial growth measured after 24 hrs by CLSI based broth microdilution method; assay type: functional
Staphylococcus aureus [4] = test: Antibacterial activity against methicillin-resistant Staphylococcus aureus N315 assessed as inhibition of bacterial growth measured after 24 hrs by CLSI based broth microdilution method; assay type: functional
Pseudomonas aeruginosa [5] = test: Antibacterial activity against Pseudomonas aeruginosa assessed as inhibition of bacterial growth measured after 24 hrs by CLSI based broth microdilution method; assay type: functional
Staphylococcus aureus [6] = test: Antibacterial activity against Staphylococcus aureus assessed as inhibition of bacterial growth measured after 24 hrs by CLSI based broth microdilution method; assay type: functional
Escherichia coli [7] = test: Antibacterial activity against Escherichia coli ATCC 25922 assessed as inhibition of bacterial growth measured after 24 hrs by CLSI based broth microdilution method; assay type: functional
Staphylococcus aureus [8] = test: Antibacterial activity against Staphylococcus aureus ATCC 25923 assessed as inhibition of bacterial growth measured after 24 hrs by CLSI based broth microdilution method; assay type: functional
Klebsiella pneumoniae [9] = test: Antibacterial activity against Klebsiella pneumoniae assessed as inhibition of bacterial growth measured after 24 hrs by CLSI based broth microdilution method; assay type: functional
Escherichia coli [10] = test: Antibacterial activity against Escherichia coli assessed as inhibition of bacterial growth measured after 24 hrs by CLSI based broth microdilution method; assay type: functional
Pseudomonas aeruginosa [11] = test: Antibacterial activity against Pseudomonas aeruginosa ATCC 27853 assessed as inhibition of bacterial growth measured after 24 hrs by CLSI based broth microdilution method; assay type: functional
Enterococcus faecalis [12] = test: Antibiofilm activity against Enterococcus faecalis assessed as reduction in biofilm formation at upto 8 times MIC measured after 24 hrs by crystal violet staining based analysis relative to control; assay type: functional; design: scale not given: the % may be the effect or the level left
Cell membrane [13] = test: Disruption of membrane integrity in Enterococcus faecalis assessed as membrane damage by measuring PI-DNA complex formation at 2 times MIC incubated for 20 to 200 mins by PI staining based analysis; details: time 20-200 min, TDE = time-dependent effect
Erythrocyte [14] = test: Hemolytic activity in human RBC assessed as morphological changes at 512 ug/ml incubated for 2 hrs by microscopic analysis; assay type: toxicity, cell-based; details: dose 512 µg/ml
Enterococcus faecalis [15] = test: Induction of intracellular ROS production in Enterococcus faecalis assessed as fold increase in intracellular ROS level at 0.25 ug/ml incubated for 6 hrs by DCFH-DA assay relative to control; assay type: functional; details: dose 0.25 µg/ml
Enterococcus faecalis [16] = test: Bactericidal activity against Enterococcus faecalis assessed as reduction in colony forming units at 4 times MIC measured after 1.5 to 6 hrs by time-kill kinetics assay; assay type: functional; details: time 1.5-6 hrs
Enterococcus faecalis [17] = test: Induction of intracellular ROS production in Enterococcus faecalis assessed as fold increase in intracellular ROS level at 2 ug/ml incubated for 6 hrs by DCFH-DA assay relative to control; assay type: functional; details: dose 2 µg/ml
Cell membrane [18] = test: Disruption of membrane integrity in Escherichia coli ATCC 25922 assessed as membrane damage by measuring PI fluorescence at 1 to 8 times MIC incubated for 8 hrs by PI staining based analysis; assay type: subcellular
Cell membrane [19] = test: Induction of membrane depolarization in Enterococcus faecalis assessed as increase in fluorescence intensity at 1 times MIC measured after 10 to 60 mins by diSC35 dye based fluorescence assay; assay type: subcellular; details: time 10-60 min, TDE = time-dependent effect
Cell membrane [20] = test: Disruption of membrane integrity in Enterococcus faecalis assessed as membrane damage by measuring PI fluorescence at 1 to 8 times MIC incubated for 8 hrs by PI staining based analysis; assay type: subcellular
Cell membrane [21] = test: Disruption of membrane integrity in Enterococcus faecalis assessed as membrane damage by measuring increase in red fluorescence at 2 to 8 times MIC incubated for 8 hrs by PI staining based fluorescence microscopic analysis; assay type: subcellular
Enterococcus faecalis [22] = test: Antibiofilm activity against Enterococcus faecalis assessed as reduction in biofilm formation at MIC measured after 24 hrs by crystal violet staining based analysis relative to control; assay type: functional; design: scale not given: the % may be the effect or the level left
Cell membrane [23] = test: Induction of membrane damage in Enterococcus faecalis assessed as increase in protein leakage measured after 6 hrs by Bradford assay; assay type: subcellular; details: DDE = dose-dependent effect
Erythrocyte [24] = test: Hemolytic activity in human RBC at 512 ug/ml incubated for 2 hrs by microplate reader analysis; assay type: toxicity, cell-based; details: dose 512 µg/ml
Calf thymus DNA [25] = test: Binding affinity to calf thymus DNA assessed as compound-DNA complex formation by measuring hypochromic shift by UV-visible absorption spectrophotometric method; assay type: nucleic-acid assay; details: Bos taurus
Calf thymus DNA [26] = test: Binding affinity to calf thymus DNA assessed as DNA intercalation by neutral red dye uptake method; assay type: nucleic-acid assay; details: Bos taurus
Staphylococcus aureus [27] = test: Potency index, ratio of sulfamethoxazole MIC to test compound MIC for antibacterial activity against Staphylococcus aureus ATCC 25923 assessed as inhibition of bacterial growth measured after 24 hrs by CLSI based broth microdilution method; assay type: functional
Klebsiella pneumoniae [28] = test: Potency index, ratio of sulfamethoxazole MIC to test compound MIC for antibacterial activity against Klebsiella pneumoniae assessed as inhibition of bacterial growth measured after 24 hrs by CLSI based broth microdilution method; assay type: functional
Staphylococcus aureus [29] = test: Potency index, ratio of sulfamethoxazole MIC to test compound MIC for antibacterial activity against Staphylococcus aureus assessed as inhibition of bacterial growth measured after 24 hrs by CLSI based broth microdilution method; assay type: functional
Klebsiella pneumoniae [30] = test: Potency index, ratio of norfloxacin MIC to test compound MIC for antibacterial activity against Klebsiella pneumoniae assessed as inhibition of bacterial growth measured after 24 hrs by CLSI based broth microdilution method; assay type: functional
Klebsiella pneumoniae [31] = test: Potency index, ratio of aloe emodin MIC to test compound MIC for antibacterial activity against Klebsiella pneumoniae assessed as inhibition of bacterial growth measured after 24 hrs by CLSI based broth microdilution method; assay type: functional
Staphylococcus aureus [32] = test: Potency index, ratio of norfloxacin MIC to test compound MIC for antibacterial activity against methicillin-resistant Staphylococcus aureus N315 assessed as inhibition of bacterial growth measured after 24 hrs by CLSI based broth microdilution method; assay type: functional

SMILES | MIC (Enterococcus faecalis [1]) | MIC (Acinetobacter baumannii) | MIC (Staphylococcus aureus [4]) | MIC (Pseudomonas aeruginosa [5]) | MIC (Staphylococcus aureus [6]) | MIC (Escherichia coli [7]) | MIC (Staphylococcus aureus [8]) | MIC (Klebsiella pneumoniae [9]) | MIC (Escherichia coli [10]) | MIC (Pseudomonas aeruginosa [11]) | further results
CCCCOP(=O)(OCCCC)C(Nc1ccc(S(=O)(=O)Nc2onc(C)c2C)cc1)c1cc(O)c2c(c1)C(=O)c1cccc(O)c1C2=O (stereo not drawn) | 128 µg/mL (≈ 180 µM) | 8 µg/mL (≈ 11.2 µM) | 64 µg/mL (≈ 89.9 µM) | 8 µg/mL (≈ 11.2 µM) | 4 µg/mL (≈ 5.62 µM) | 8 µg/mL (≈ 11.2 µM) | 2 µg/mL (≈ 2.81 µM) | 16 µg/mL (≈ 22.5 µM) | 256 µg/mL (≈ 360 µM) | 256 µg/mL (≈ 360 µM) | Ratio (Staphylococcus aureus [2]): 2; Ratio (Staphylococcus aureus [3]): 4
CCOP(=O)(OCC)C(Nc1ccc(S(=O)(=O)Nc2ncccn2)cc1)c1cc(O)c2c(c1)C(=O)c1cccc(O)c1C2=O (stereo not drawn) | 0.25 µg/mL (≈ 0.391 µM) | 16 µg/mL (≈ 25.1 µM) | 8 µg/mL (≈ 12.5 µM) | 8 µg/mL (≈ 12.5 µM) | 128 µg/mL (≈ 200 µM) | 0.25 µg/mL (≈ 0.391 µM) | 2 µg/mL (≈ 3.13 µM) | 0.5 µg/mL (≈ 0.783 µM) | 2 µg/mL (≈ 3.13 µM) | 0.25 µg/mL (≈ 0.391 µM) | Activity (Enterococcus faecalis [12]): <=79%; Activity (Cell membrane [13]): Tde; Activity (Erythrocyte [14]): Non-Toxic; fold change (FC) (Enterococcus faecalis [15]): 1.2; Activity (Enterococcus faecalis [16]): 3 log10CFU/ml; fold change (FC) (Enterococcus faecalis [17]): 2.4; Activity (Cell membrane [18]): Active; Activity (Cell membrane [19]): Tde; Activity (Cell membrane [20]): Active; Activity (Cell membrane [21]): Active; Activity (Enterococcus faecalis [22]): 30%; Activity (Cell membrane [23]): Dde; Activity (Erythrocyte [24]): Non-Toxic; Activity (Calf thymus DNA [25]): Active; Activity (Calf thymus DNA [26]): Active
CCOP(=O)(OCC)C(Nc1ccc(S(=O)(=O)Nc2cc(C)on2)cc1)c1cc(O)c2c(c1)C(=O)c1cccc(O)c1C2=O (stereo not drawn) | 256 µg/mL (≈ 399 µM) | 64 µg/mL (≈ 99.8 µM) | 64 µg/mL (≈ 99.8 µM) | 32 µg/mL (≈ 49.9 µM) | 0.5 µg/mL (≈ 0.779 µM) | 32 µg/mL (≈ 49.9 µM) | 0.5 µg/mL (≈ 0.779 µM) | 2 µg/mL (≈ 3.12 µM) | 64 µg/mL (≈ 99.8 µM) | 32 µg/mL (≈ 49.9 µM) | Ratio (Staphylococcus aureus [27]): 64; Ratio (Klebsiella pneumoniae [28]): 4; Ratio (Staphylococcus aureus [29]): 16; Ratio (Klebsiella pneumoniae [30]): 2; Ratio (Klebsiella pneumoniae [31]): 32
Nc1ccc(S(N)(=O)=O)cc1 [SULFANILAMIDE] | 128 µg/mL (≈ 743 µM) | 4 µg/mL (≈ 23.2 µM) | 256 µg/mL (≈ 1490 µM) | 4 µg/mL (≈ 23.2 µM) | 128 µg/mL (≈ 743 µM) | 4 µg/mL (≈ 23.2 µM) | 256 µg/mL (≈ 1490 µM) | 8 µg/mL (≈ 46.5 µM) | 64 µg/mL (≈ 372 µM) | 2 µg/mL (≈ 11.6 µM) | 
COP(=O)(OC)C(Nc1ccc(S(=O)(=O)Nc2cc(C)on2)cc1)c1cc(O)c2c(c1)C(=O)c1cccc(O)c1C2=O (stereo not drawn) | 64 µg/mL (≈ 104 µM) | 128 µg/mL (≈ 209 µM) | 128 µg/mL (≈ 209 µM) | 16 µg/mL (≈ 26.1 µM) | 8 µg/mL (≈ 13 µM) | 64 µg/mL (≈ 104 µM) | 0.5 µg/mL (≈ 0.815 µM) | 32 µg/mL (≈ 52.2 µM) | 16 µg/mL (≈ 26.1 µM) | 64 µg/mL (≈ 104 µM) | 
CCOP(=O)(OCC)C(Nc1ccc(S(=O)(=O)Nc2ccccn2)cc1)c1cc(O)c2c(c1)C(=O)c1cccc(O)c1C2=O (stereo not drawn) | 64 µg/mL (≈ 100 µM) | 128 µg/mL (≈ 201 µM) | 2 µg/mL (≈ 3.14 µM) | 256 µg/mL (≈ 402 µM) | 64 µg/mL (≈ 100 µM) | 256 µg/mL (≈ 402 µM) | 128 µg/mL (≈ 201 µM) | 256 µg/mL (≈ 402 µM) | 256 µg/mL (≈ 402 µM) | 64 µg/mL (≈ 100 µM) | Ratio (Staphylococcus aureus [32]): 4
Nc1ccc(S(=O)(=O)Nc2ncccn2)cc1 [SULFADIAZINE] | 16 µg/mL (≈ 63.9 µM) | 32 µg/mL (≈ 128 µM) | 64 µg/mL (≈ 256 µM) | 8 µg/mL (≈ 32 µM) | 64 µg/mL (≈ 256 µM) | 32 µg/mL (≈ 128 µM) | 16 µg/mL (≈ 63.9 µM) | 256 µg/mL (≈ 1020 µM) | 64 µg/mL (≈ 256 µM) | 64 µg/mL (≈ 256 µM) | 
CCOP(=O)(OCC)C(Nc1ccc(S(=O)(=O)Nc2onc(C)c2C)cc1)c1cc(O)c2c(c1)C(=O)c1cccc(O)c1C2=O (stereo not drawn) | 256 µg/mL (≈ 390 µM) | 256 µg/mL (≈ 390 µM) | 16 µg/mL (≈ 24.4 µM) | 256 µg/mL (≈ 390 µM) | 256 µg/mL (≈ 390 µM) | 256 µg/mL (≈ 390 µM) | 256 µg/mL (≈ 390 µM) | 256 µg/mL (≈ 390 µM) | 256 µg/mL (≈ 390 µM) | 256 µg/mL (≈ 390 µM) | 
